These results are taken from ChEMBL document CHEMBL1156794, “Synthesis and antimicrobial evaluation of amphiphilic neamine derivatives” (J Med Chem, 2010).

Assay [1] deals with Acinetobacter lwoffii. Nature of the assay: Antibacterial activity against […] expressing Acinetobacter lwoffii AI.88-483 after 24 hrs by geometric microdilution method. It is filed as functional. For orientation: Dilution methods test growth across graded concentrations, often in twofold steps.
Assay [2] has as its system Pseudomonas aeruginosa. Put plainly: Antibacterial activity against Pseudomonas aeruginosa ATCC 27853 after 24 hrs by geometric microdilution method. It is filed as functional.
Assay [3] deals with Pseudomonas aeruginosa. Put plainly: Antibacterial activity against AAC6'-2a expressing Pseudomonas aeruginosa F03 after 24 hrs by geometric microdilution method. It is filed as functional.
Assay [4] concerns Pseudomonas aeruginosa. Nature of the assay: Antibacterial activity against MexXY expressing Pseudomonas aeruginosa PT629 after 24 hrs by geometric microdilution method. It counts as functional.
For assay [5], the system named is Klebsiella pneumoniae. Put plainly: Antibacterial activity against Klebsiella pneumoniae ATCC 700603 after 24 hrs by geometric microdilution method. It counts as functional.
Assay [6] relates to Escherichia coli. Put plainly: Antibacterial activity against AAC6'-2b expressing Escherichia coli PAZ505H8101 after 24 hrs by geometric microdilution method. It is filed as functional.
Assay [7] relates to Escherichia coli. Put plainly: Antibacterial activity against ANT2'-2a expressing Escherichia coli L58058.1 after 24 hrs by geometric microdilution method. It is filed as functional.
The subject of assay [8] is Pseudomonas aeruginosa. Put plainly: Antibacterial activity against Pseudomonas aeruginosa PAO1 after 24 hrs by geometric microdilution method. It is filed as functional.
Assay [9] deals with Pseudomonas aeruginosa. Put plainly: Antibacterial activity against MexCD expressing Pseudomonas aeruginosa PA01 after 24 hrs by geometric microdilution method. It counts as functional.
Assay [10] concerns Pseudomonas aeruginosa. Put plainly: Antibacterial activity against MexEF expressing Pseudomonas aeruginosa PA03 after 24 hrs by geometric microdilution method. It counts as functional.
Assay [11] concerns Pseudomonas aeruginosa. Put plainly: Antibacterial activity against MexAB expressing Pseudomonas aeruginosa PA21 after 24 hrs by geometric microdilution method. It is filed as functional.
For assay [12], the system named is Pseudomonas aeruginosa. Nature of the assay: Antibacterial activity against MexXY expressing Pseudomonas aeruginosa PA22 after 24 hrs by geometric microdilution method. It is filed as functional.
For assay [13], the system named is Pseudomonas aeruginosa. Nature of the assay: Antibacterial activity against TriABC expressing MexAB, MexCD, MexEF, MexXY deleted Pseudomonas aeruginosa PA405 after 24 hrs by geometric microdilution method. It is filed as functional.
Assay [14] has as its system Pseudomonas aeruginosa. Put plainly: Antibacterial activity against MexAB, MexCD, MexEF, MexXY, TriABC deleted Pseudomonas aeruginosa PA406 after 24 hrs by geometric microdilution method. It counts as functional.
Assay [15] relates to Citrobacter amalonaticus. Put plainly: Antibacterial activity against R-methylase expressing Citrobacter amalonaticus 06AB0010 after 24 hrs by geometric microdilution method. It counts as functional.
Assay [16] relates to Escherichia coli. Put plainly: Antibacterial activity against R-methylase expressing Escherichia coli 06AB003 after 24 hrs by geometric microdilution method. It counts as functional.
For assay [17], the system named is Klebsiella aerogenes. Nature of the assay: Antibacterial activity against R-methylase expressing Enterobacter aerogenes 06AB008 after 24 hrs by geometric microdilution method. It counts as functional.
In assay [18] the test system is Pseudomonas aeruginosa. Nature of the assay: Inhibition of protein synthesis in Pseudomonas aeruginosa ATCC 27853 assessed as decrease in incorporation of L-[4,5-3H]leucine at 10 times MIC by liquid scintillation counter relative to control. It is filed as functional.
In assay [19] the target is Nucleic Acid. Put plainly: Binding affinity to bacterial rRNA A site at 200 uM by isothermal titration calorimetry. It counts as nucleic-acid assay. In general terms: In ITC the heat of successive injections is recorded.
Assay [20] deals with Pseudomonas aeruginosa. Put plainly: Inhibition of protein synthesis in Pseudomonas aeruginosa ATCC 27853 assessed as decrease in incorporation of L-[4,5-3H]leucine at 5 times MIC by liquid scintillation counter relative to control. It counts as functional.
The test system of assay [21] is Staphylococcus aureus. Put plainly: Antibacterial activity against MsrA pump expressing Staphylococcus aureus after 24 hrs by geometric microdilution method. It counts as functional.
The test system of assay [22] is Staphylococcus aureus. Nature of the assay: Antibacterial activity against aminoglycoside-6'-N-acetyltransferase/2''-O-phosphoryltransferase expressing Staphylococcus aureus after 24 hrs by geometric microdilution method. It counts as functional.
For assay [23], the system named is Staphylococcus aureus. Nature of the assay: Antibacterial activity against aminoglycoside-3'-O-phosphoryltransferase expressing Staphylococcus aureus after 24 hrs by geometric microdilution method. It is filed as functional.
Assay [24] concerns Staphylococcus aureus. Put plainly: Antibacterial activity against aminoglycoside-4'-O-phosphoryltransferase expressing Staphylococcus aureus after 24 hrs by geometric microdilution method. It counts as functional.
The subject of assay [25] is Staphylococcus aureus. Nature of the assay: Antibacterial activity against methicillin-resistant Staphylococcus aureus ATCC 33592 clinical isolate after 24 hrs by geometric microdilution method. It counts as functional. Particulars: ATCC 33592, 24 h.
In assay [26] the test system is Staphylococcus aureus. Nature of the assay: Antibacterial activity against vancomycin-resistant Staphylococcus aureus VRS-2 after 24 hrs by geometric microdilution method. It counts as functional. Particulars: VRS-2, 24 h.
The subject of assay [27] is Pseudomonas aeruginosa. Nature of the assay: Inhibition of protein synthesis in Pseudomonas aeruginosa ATCC 27853 assessed as decrease in incorporation of L-[4,5-3H]leucine at MIC by liquid scintillation counter relative to control. It counts as functional.
Assay [28] relates to Staphylococcus aureus. Nature of the assay: Antibacterial activity against Staphylococcus aureus ATCC 25923 after 24 hrs by geometric microdilution method. It is filed as functional. Particulars: ATCC 25923, 24 h.
The test system of assay [29] is Staphylococcus aureus. Nature of the assay: Antibacterial activity against NorA pump expressing Staphylococcus aureus after 24 hrs by geometric microdilution method. It is filed as functional.
Assay [30] deals with Acinetobacter lwoffii. Nature of the assay: microbe, parasite or virus in culture. Particulars: ATCC 17925, 24 h.
Description: Antibacterial activity against Acinetobacter lwoffii ATCC 17925 after 24 hrs by geometric microdilution method
The test system of assay [31] is Escherichia coli. Put plainly: microbe, parasite or virus in culture. Conditions: ATCC 25922, 24 h.
Description: Antibacterial activity against Escherichia coli ATCC 25922 after 24 hrs by geometric microdilution method

In brackets after ≈: the same amount, converted by molar mass.

The Kd is the free concentration of one partner at which half of the binding sites on the other are occupied at equilibrium, for simple one-to-one binding. A low value points to tighter binding.

As to `NC[C@H]1O[C@H](O[C@H]2[C@H](O)[C@@H](OCc3ccc4ccccc4c3)[C@H](N)C[C@@H]2N)[C@H](N)[C@@H](OCc2ccc3ccccc3c2)[C@@H]1OCc1ccc2ccccc2c1`, the MIC in assay [1] (AI.88-483, 24 h) came out at 32 µg/mL (≈ 43.1 µM); in [2] (ATCC 27853, 24 h), 8 µg/mL (≈ 10.8 µM); in assay [3] (F03, 24 h) it was 8 µg/mL (≈ 10.8 µM); in assay [4] (PT629, 24 h) it was 4 µg/mL (≈ 5.38 µM); in assay [5] (ATCC 700603, 24 h), 16 µg/mL (≈ 21.5 µM); in assay [6] (PAZ505H8101, 24 h), 4 µg/mL (≈ 5.38 µM). In addition, the MIC in assay [7] (L58058.1, 24 h) stood at 4 µg/mL (≈ 5.38 µM); in assay [8] (PAO1, 24 h), 8 µg/mL (≈ 10.8 µM); in assay [9] (PA01, 24 h), 4 µg/mL (≈ 5.38 µM); in assay [10] (PA03, 24 h) it was 4 µg/mL (≈ 5.38 µM); in [11] (PA21, 24 h), 4 µg/mL (≈ 5.38 µM); in assay [12] (PA22, 24 h), 4 µg/mL (≈ 5.38 µM). The MIC in assay [13] (PA405, 24 h) stood at 4 µg/mL (≈ 5.38 µM); in assay [14] (PA406, 24 h) it was 4 µg/mL (≈ 5.38 µM); in assay [15] (06AB0010, 24 h), 4 µg/mL (≈ 5.38 µM); in assay [16] (06AB003, 24 h), 4 µg/mL (≈ 5.38 µM); in assay [17] (06AB008, 24 h), 4 µg/mL (≈ 5.38 µM). Further, the “inhibition (INH)” value in assay [18] came out at 60%. Further, the Kd in [19] is 10 µM.
Consider GENTAMICIN, for which the MIC in [1] is 4 µg/mL; in assay [2], 1 µg/mL; in [3], over 28 µg/mL; in assay [4], 4 µg/mL; in assay [5] it was 8 µg/mL; in [6], 1 µg/mL. Also, the MIC in assay [7] was found to be 64 µg/mL; in [8], 2 µg/mL; in assay [9] it was 1 µg/mL; in [10], 1 µg/mL; in [11] it was 1 µg/mL; in assay [12], 4 µg/mL. For the same compound, the MIC in [13] is under 0.125 µg/mL; in [14], under 0.125 µg/mL; in assay [15] it was over 128 µg/mL; in assay [16], over 128 µg/mL; in assay [17], over 128 µg/mL.
Take `C[C@H]1[C@H](NC(=O)/C(=N\OC(C)(C)C(=O)O)c2csc(N)n2)C(=O)N1S(=O)(=O)O` [AZTREONAM]: the “inhibition (INH)” value in assay [18] is 95%; in assay [20], 30%.
Take `NC[C@@H]1O[C@H](O[C@H]2[C@@H](O)[C@H](O[C@@H]3[C@@H](O)[C@H](N)C[C@H](N)[C@H]3O[C@H]3O[C@H](CN)[C@@H](O)[C@H](O)[C@H]3N)O[C@@H]2CO)[C@H](N)[C@@H](O)[C@@H]1O` [FRAMYCETIN]: the MIC in [21] is 2 µg/mL (≈ 3.25 µM); in assay [22], 1 µg/mL (≈ 1.63 µM); in assay [23], over 128 µg/mL; in assay [24], 32 µg/mL (≈ 52.1 µM); in assay [25], over 128 µg/mL; in [26] it was 128 µg/mL (≈ 208 µM). Moreover, the MIC is over 128 µg/mL in assay [1] (AI.88-483, 24 h); 64 µg/mL (≈ 104 µM) in [2] (ATCC 27853, 24 h); 128 µg/mL (≈ 208 µM) in [3] (F03, 24 h); 32 µg/mL (≈ 52.1 µM) in [4] (PT629, 24 h); 16 µg/mL (≈ 26 µM) in [5] (ATCC 700603, 24 h); 4 µg/mL (≈ 6.51 µM) in assay [6] (PAZ505H8101, 24 h). For the same compound, the MIC in [7] (L58058.1, 24 h) came to 32 µg/mL (≈ 52.1 µM); in assay [8] (PAO1, 24 h), 4 µg/mL (≈ 6.51 µM); in assay [9] (PA01, 24 h) it was 8 µg/mL (≈ 13 µM); in assay [10] (PA03, 24 h), 4 µg/mL (≈ 6.51 µM); in assay [11] (PA21, 24 h) it was 4 µg/mL (≈ 6.51 µM); in assay [12] (PA22, 24 h) it was 32 µg/mL (≈ 52.1 µM). Besides, the MIC in assay [13] (PA405, 24 h) is 2 µg/mL (≈ 3.25 µM); in assay [14] (PA406, 24 h), 4 µg/mL (≈ 6.51 µM); in [28], 2 µg/mL (≈ 3.25 µM); in [29] it was 1 µg/mL (≈ 1.63 µM); in [30], 0.5 µg/mL (≈ 0.813 µM); in assay [31], 2 µg/mL (≈ 3.25 µM). Moreover, the “inhibition (INH)” value in assay [27] and in assay [18] was 40% throughout. In assay [19], this compound registered a Kd of 1.55 µM.
